target: T1, recombinant GSK-3β enzyme (Homo sapiens, UniProt P49841); assay: GSK-3β inhibitory activity evaluation (Kinase Glo luminescence, recombinant enzyme); assay type: biochemical; details: recombinant human GSK-3β 100 ng, glycogen synthase-derived substrate peptide, 2.5 μM ATP solution, 30 min room temperature
T1 construct: FLAG (N); made in house; host or cells: Sf-21 insect cells, recombinant baculovirus (pFASTBAC1, BAC-TO-BAC)
Protocol: Human GSK-3β gene was cloned by PCR using human brain cDNA (Clontech; trade name: QUICK-Clone cDNA) as a template and a primer set (GSK3β-U: 5′-[…] CTT-3′ (SEQ ID NO: 1) and GSK3β-L: 5′-[…]-3′ (SEQ ID NO: 2)) prepared by reference to the base sequence of GSK-3β gene registered under an accession No. NM_002093 in the GenBank.
PCR was performed according to the protocol attached to KOD plus DNA polymerase (TOYOBO CO., LTD.). The obtained PCR product was subjected to agarose gel (1%) electrophoresis, and DNA fragment (1.2 kb) containing GSK-3β gene was recovered from the gel, and digested with restriction enzymes EcoR I and Sal I. DNA after treatment with restriction enzymes was subjected to agarose gel (1%) electrophoresis, and the obtained DNA fragment was recovered, and ligated to plasmid pFASTBAC1 (Invitrogen) digested with restriction enzymes EcoR I and Sal I to give expression plasmid pFB-GSK3β. The base sequence of the inserted fragment was confirmed to match the object sequence. Using BAC-TO-BAC Baculovirus Expression System (Invitrogen), virus stock BAC-GSK3β of recombinant Baculovirus was prepared.
Sf-21 cells (Invitrogen) were inoculated to 150 ml Sf-900 II SEM medium (Invitrogen) containing 10% fetal bovine serum to 1×10^6 cells/ml and cultured at 27° C. for 24 hr. To the obtained culture medium was added the virus stock BAC-GSK3β of recombinant Baculovirus obtained above by 150 μl each, and the cells were further cultured for 60 hr. The culture medium was centrifuged (3000 rpm, 10 min) to separate the cells, and the cells were washed once with PBS. The cells were suspended in 10 ml of cell lysis buffer (25 mM HEPES (pH 7.5), 1% Triton X, 130 mM sodium chloride, 1 mM EDTA, 1 mM Dithiothreitol, 25 mM β-glycerophosphate, Protease inhibitor Complete (Boehringer), 1 mM sodium orthovanadate), treated 4 times in a homogenizer (POLYTRON) at 20000 rpm, 30 sec to disrupt the cells. The cell disrupt solution was centrifuged (40000 rpm, 45 min), and GSK-3β was purified from the obtained supernatant using Anti-FLAG M2 Affinity Gel (Sigma Ltd.).
To 37.5 μl of a reaction solution (25 mM HEPES (pH 7.5), 10 mM magnesium acetate, 1 mM DTT, 0.01% bovine serum albumin (Wako Pure Chemical Industries, Ltd.)) containing recombinant GSK-3β enzyme (100 ng) obtained above and substrate peptide ([…]pSEDEEE (SEQ ID NO: 3), pS is phosphorylated serine) (100 ng) derived from glycogen synthase was added a test compound (2.5 μl) dissolved in DMSO, and the mixture was incubated at room temperature for 5 min. To the obtained mixture was added ATP solution (2.5 μM ATP, 10 μl), and the mixture was reacted at room temperature for 30 min. After the reaction, the reaction was quenched by adding 50 μL of Kinase Glo Reagent (Promega) to the reaction solution. After reaction at room temperature for 10 min, the luminescence amount was measured using an ARVO multilabel counter (PerkinElmer Life Sciences). The concentration of the test compound necessary for inhibiting the luminescence amount by 50% (IC50 value) was calculated by PRISM 3.0 (Graphpad software).

T1 sequence (P49841 whole entry): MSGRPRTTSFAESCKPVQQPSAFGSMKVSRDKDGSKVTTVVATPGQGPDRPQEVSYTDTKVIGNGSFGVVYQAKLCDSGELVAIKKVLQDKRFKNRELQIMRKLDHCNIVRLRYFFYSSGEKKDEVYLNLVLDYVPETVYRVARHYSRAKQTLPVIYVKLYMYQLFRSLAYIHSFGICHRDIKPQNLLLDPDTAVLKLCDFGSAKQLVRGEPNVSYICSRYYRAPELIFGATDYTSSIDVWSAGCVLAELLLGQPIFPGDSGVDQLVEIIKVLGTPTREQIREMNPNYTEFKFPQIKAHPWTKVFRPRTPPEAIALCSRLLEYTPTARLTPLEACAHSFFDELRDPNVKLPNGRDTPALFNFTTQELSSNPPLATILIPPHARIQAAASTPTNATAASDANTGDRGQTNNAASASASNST

| Compound | IC50 [µM] |
| --- | --- |
| O=C(NCc1ccccn1)Nc1cc(N2CC(c3ccccc3)CC2=O)ccn1 (single isomer, unassigned; (-)) [Example 5, (−)-N-(4-(2-oxo-4-phenylpyrrolidin-1-yl)pyridin-2-yl)-N′-(pyridin-2-ylmethyl)urea] | < 0.1 |
| O=C(NCc1ccccn1)Nc1cc(N2CC(c3ccccc3)CC2=O)ccn1 (centres unmarked) [Example 4, N-(4-(2-oxo-4-phenylpyrrolidin-1-yl)pyridin-2-yl)-N′-(pyridin-2-ylmethyl)urea] | < 0.1 |
| O=C(NCc1cccnc1)Nc1cc(N2CC(c3ccccc3)CC2=O)ccn1 (centres unmarked) [Example 7, N-(4-(2-oxo-4-phenylpyrrolidin-1-yl)pyridin-2-yl)-N′-(pyridin-3-ylmethyl)urea] | 0.19 |
| O=C(NCc1ccc2c(c1)OCO2)Nc1cc(N2CC(c3ccccc3)CC2=O)ccn1 (centres unmarked) [Example 13, N-(1,3-benzodioxol-5-ylmethyl)-N′-(4-(2-oxo-4-phenylpyrrolidin-1-yl)pyridin-2-yl)urea] | 0.28 |
| COc1ccc(C2CC(=O)N(c3ccnc(NC(=O)NCc4ccccn4)c3)C2)cc1 (centres unmarked) [Example 21, N-(4-(4-(4-methoxyphenyl)-2-oxopyrrolidin-1-yl)pyridin-2-yl)-N′-(pyridin-2-ylmethyl)urea] | 0.12 |
| O=C(NCc1ccccn1)Nc1cc(N2CC(c3cccc(C(F)(F)F)c3)CC2=O)ccn1 (centres unmarked) [Example 25, N-(4-(2-oxo-4-(3-(trifluoromethyl)phenyl)pyrrolidin-1-yl)pyridin-2-yl)-N′-(pyridin-2-ylmethyl)urea] | 0.1 |
| O=C(NCc1ccccn1)Nc1cc(N2CC(c3cccc(F)c3)CC2=O)ccn1 (centres unmarked) [Example 29, N-(4-(4-(3-fluorophenyl)-2-oxopyrrolidin-1-yl)pyridin-2-yl)-N′-(pyridin-2-ylmethyl)urea] | 0.1 |
| O=C(NCc1ccccn1)Nc1cc(N2CC(Cc3ccccc3)CC2=O)ccn1 (centres unmarked) [Example 34, N-(4-(4-benzyl-2-oxopyrrolidin-1-yl)pyridin-2-yl)-N′-((pyridin-2-yl)methyl)urea] | < 0.1 |
| O=C(NCc1ccccn1)Nc1cc(N2CC(CCc3ccccc3)CC2=O)ccn1 (centres unmarked) [Example 37, N-(4-(2-oxo-4-(2-phenylethyl)pyrrolidin-1-yl)pyridin-2-yl)-N′-(pyridin-2-ylmethyl)urea] | < 0.1 |
| O=C(NCc1ccccn1)Nc1cc(N2CC(c3ccccc3)OC2=O)ccn1 (centres unmarked) [Example 42, N-(4-(2-oxo-5-phenyl-1,3-oxazolidin-3-yl)pyridin-2-yl)-N′-(pyridin-2-ylmethyl)urea] | < 0.1 |
| O=C(NCc1ccccn1)Nc1cc(N2CC(Cc3ccccc3)OC2=O)ccn1 (centres unmarked) [Example 43, N-(4-(5-benzyl-2-oxo-1,3-oxazolidin-3-yl)pyridin-2-yl)-N′-(pyridin-2-ylmethyl)urea] | < 0.1 |
| O=C(NCc1ccccn1)Nc1cc(N2CC(CCc3ccccc3)OC2=O)ccn1 (centres unmarked) [Example 44, N-(4-(2-oxo-5-(2-phenylethyl)-1,3-oxazolidin-3-yl)pyridin-2-yl)-N′-(pyridin-2-ylmethyl)urea] | < 0.1 |
| O=C(NCc1ccccn1)Nc1cc(N2CC(COc3ccccc3)OC2=O)ccn1 (centres unmarked) [Example 45, N-(4-(2-oxo-5-(phenoxymethyl)-1,3-oxazolidin-3-yl)pyridin-2-yl)-N′-(pyridin-2-ylmethyl)urea] | < 0.1 |
| O=C(NCc1ccccn1)Nc1cc(N2CC(COCc3ccccc3)OC2=O)ccn1 (centres unmarked) [Example 46, N-(4-(5-((benzyloxy)methyl)-2-oxo-1,3-oxazolidin-3-yl)pyridin-2-yl)-N′-(pyridin-2-ylmethyl)urea] | < 0.1 |
| O=C(NCc1ccccn1)Nc1cc(-n2cc(-c3ccccc3)oc2=O)ccn1 [Example 47, N-(4-(2-oxo-5-phenyl-1,3-oxazol-3(2H)-yl)pyridin-2-yl)-N′-(pyridin-2-ylmethyl)urea] | < 0.1 |
| O=C(NCc1ccccn1)Nc1cc(N2CC(c3cccs3)OC2=O)ccn1 (centres unmarked) [Example 48, N-(4-(2-oxo-5-(2-thienyl)-1,3-oxazolidin-3-yl)pyridin-2-yl)-N′-(pyridin-2-ylmethyl)urea] | < 0.1 |
| CC1(c2ccccc2)CN(c2ccnc(NC(=O)NCc3ccccn3)c2)C(=O)O1 (centres unmarked) [Example 49, N-(4-(5-methyl-2-oxo-5-phenyl-1,3-oxazolidin-3-yl)pyridin-2-yl)-N′-(pyridin-2-ylmethyl)urea] | < 0.1 |

Continued, values first:

| IC50 [µM] | Compound |
| --- | --- |
| < 0.1 | CC1CCN(c2ccnc(NC(=O)NCc3ccccn3)c2)C1=O (centres unmarked) [Example 51, N-(4-(3-methyl-2-oxopyrrolidin-1-yl)pyridin-2-yl)-N′-((pyridin-2-yl)methyl)urea] |
| 0.1 | CC1CCC(=O)N1c1ccnc(NC(=O)NCc2ccccn2)c1 (centres unmarked) [Example 53, N-(4-(2-methyl-5-oxopyrrolidin-1-yl)pyridin-2-yl)-N′-((pyridin-2-yl)methyl)urea] |
| < 0.1 | O=C(NCc1ccccn1)Nc1cc(N2CC3(CCCCC3)CC2=O)ccn1 [Example 54, N-(4-(3-oxo-2-azaspiro[4.5]dec-2-yl)pyridin-2-yl)-N′-(pyridin-2-ylmethyl)urea] |
| < 0.1 | CC1(C)C(=O)N(c2ccnc(NC(=O)NCc3ccccn3)c2)c2ccccc21 [Example 58, N-(4-(3,3-dimethyl-2-oxo-2,3-dihydro-1H-indol-1-yl)pyridin-2-yl)-N′-((pyridin-2-yl)methyl)urea] |
| < 0.1 | CC1(C)C(=O)N(c2ccnc(NC(=O)NCc3ccccn3)c2)c2cccnc21 [Example 59, N-(4-(3,3-dimethyl-2-oxo-2,3-dihydro-1H-pyrrolo[3,2-b]pyridin-1-yl)pyridin-2-yl)-N′-(pyridin-2-ylmethyl)urea] |
| < 0.1 | Cn1c(=O)n(-c2ccnc(NC(=O)NCc3ccccn3)c2)c2ccccc21 [Example 61, N-(4-(3-methyl-2-oxo-2,3-dihydro-1H-benzimidazol-1-yl)pyridin-2-yl)-N′-(pyridin-2-ylmethyl)urea] |
| < 0.1 | O=C(NCc1ccccn1)Nc1cc(-n2c(=O)oc3ccccc32)ccn1 [Example 64, N-(4-(2-oxo-1,3-benzoxazol-3(2H)-yl)pyridin-2-yl)-N′-(pyridin-2-ylmethyl)urea] |
| < 0.1 | Cc1ccc2c(c1)oc(=O)n2-c1ccnc(NC(=O)NCc2ccccn2)c1 [Example 65, 1-(4-(6-methyl-2-oxo-1,3-benzoxazol-3(2H)-yl)pyridin-2-yl)-3-(pyridin-2-ylmethyl)urea] |
| < 0.1 | Cc1ccc2oc(=O)n(-c3ccnc(NC(=O)NCc4ccccn4)c3)c2c1 [Example 66, N-(4-(5-methyl-2-oxo-1,3-benzoxazol-3(2H)-yl)pyridin-2-yl)-N′-(pyridin-2-ylmethyl) urea] |
| < 0.1 | O=C(NCc1ccccn1)Nc1cc(NC(=O)c2ccccc2)ccn1 [Example 69, N-(2-(((pyridin-2-ylmethyl)carbamoyl)amino)pyridin-4-yl)benzamide] |
| 0.22 | O=C(CCc1ccccn1)Nc1cc(N2CC(c3ccccc3)CC2=O)ccn1 (centres unmarked) [Example 75, N-(4-(2-oxo-4-phenylpyrrolidin-1-yl)pyridin-2-yl)-3-(pyridin-2-yl)propanamide] |
| 0.16 | O=C(CCc1ccccn1)Nc1cc(N2CC(c3ccccc3)OC2=O)ccn1 (centres unmarked) [Example 76, N-(4-(2-oxo-5-phenyl-1,3-oxazolidin-3-yl)pyridin-2-yl)-3-(pyridin-2-yl)propanamide] |
| 0.19 | O=C(CCc1cccnc1)Nc1cc(N2CC(c3ccccc3)OC2=O)ccn1 (centres unmarked) [Example 77, N-(4-(2-oxo-5-phenyl-1,3-oxazolidin-3-yl)pyridin-2-yl)-3-(pyridin-3-yl)propanamide] |
| < 0.1 | O=C(CCc1nc2ccccc2s1)Nc1cc(N2CC(c3ccccc3)OC2=O)ccn1 (centres unmarked) [Example 78, 3-(1,3-benzothiazol-2-yl)-N-(4-(2-oxo-5-phenyl-1,3-oxazolidin-3-yl)pyridin-2-yl)propanamide] |
| 0.23 | O=C(Cc1cccs1)Nc1cc(N2CC(c3ccccc3)OC2=O)ccn1 (centres unmarked) [Example 79, N-(4-(2-oxo-5-phenyl-1,3-oxazolidin-3-yl)pyridin-2-yl)-2-(2-thienyl)acetamide] |

— patent US20110039893A1, “GSK-3BETA INHIBITOR” (Takeda Pharmaceutical Company Limited, priority 2006, published 2011)
